Experimental data published in patent US20090281077A1, “Cyclic sulfones useful as mitochondrial sodium-calcium exchangers” (priority 2006, published 2009).

Molecular target: T1, mitochondrial sodium-calcium exchanger (mNCE) (Rattus norvegicus, UniProt Q6AXS0)
T1 construct: from tissue; host or cells: rat whole brain, isolated mitochondria
T1 sequence (Q6AXS0 27-585): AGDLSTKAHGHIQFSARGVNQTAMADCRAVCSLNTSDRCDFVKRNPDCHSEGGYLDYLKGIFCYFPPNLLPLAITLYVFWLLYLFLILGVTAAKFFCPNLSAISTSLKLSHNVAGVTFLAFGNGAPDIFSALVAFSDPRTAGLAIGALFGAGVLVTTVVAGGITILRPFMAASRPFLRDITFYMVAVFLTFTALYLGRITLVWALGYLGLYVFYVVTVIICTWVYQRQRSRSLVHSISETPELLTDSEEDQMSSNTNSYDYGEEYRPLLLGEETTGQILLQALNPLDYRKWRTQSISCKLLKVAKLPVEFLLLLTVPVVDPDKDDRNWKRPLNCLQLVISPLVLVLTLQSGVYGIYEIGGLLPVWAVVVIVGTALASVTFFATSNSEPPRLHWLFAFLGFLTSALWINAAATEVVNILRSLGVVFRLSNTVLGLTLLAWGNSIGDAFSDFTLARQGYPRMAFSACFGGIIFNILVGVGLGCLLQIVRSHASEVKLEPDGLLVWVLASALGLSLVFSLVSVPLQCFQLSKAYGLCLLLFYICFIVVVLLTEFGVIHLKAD
Test: Measurement of the Na-Ca exchanger of rat brain mitochondria (Na-induced Ca-release, Oregon Green fluorescence)
Type: biochemical
Conditions: isolated rat brain mitochondria; Ca-efflux rates induced by 20 mM NaCl; rt
Protocol: The method is adapted from the method of Rosenthal et al. [J. Cereb. Blood Flow Metab., 7, 752-758 (1987)].
MSH+: 225 mM mannitol, 75 mM sucrose, 5 mM Hepes, 0.5 mM EDTA, 1 mg/ml of BSA (essentially free fatty acid free); final pH=7.3.
MSH−: Equal to MSH+, but without EDTA.
Nagarse solution: 5 mg of nagarse (bacterial protease type XXIV from Sigma, St. Louis, USA, catalogue # P-8038) dissolved in 1 ml of MSH+.
Digitonin solution: 10% W/V in DMSO.
The entire procedure is performed on ice. Remove the whole brain from the rat (1 brain=2 g). Add the tissue to cold MSH+in a beaker on ice. Cut the tissue into small pieces using scissors and wash the tissue 2 times with MSH+. Transfer the tissue into a 20 ml Dounce homogenizer and set level to about 9 ml with MSH+. Add 1 ml of freshly made Nagarse solution. Homogenize (6 strokes with a loose and 6 strokes with a tight pestle). […] The protein concentration is determined using the Pierce BCA assay (Pierce, Rockford Ill., USA). […]
In a typical experiment 96-well microtiter plates (flat bottom) are used. […] Distribute in a 96-well plate 5 μl/well of 2 μM ruthenium red [in 120 mM KCl and 20 mM Tris (pH=7.4)] and the compounds (in DMSO) to be analyzed (1 μl/well). […] Measure the Ca-release induced by the addition of Na by monitoring the Oregon Green fluorescence (485 nm and 538 nm monochromators for excitation and emission, respectively). […]

Q: `O=C1CS(=O)(=O)C(c2ccccc2Cl)c2cc(Cl)ccc2N1` (stereo not shown) [Example 1, 2-Chloro-9-(2-chlorophenyl)-8,8-dioxo-5,7,8,9-tetrahydro-8lambda*6*-thia-5-aza-benzocyclohepten-6-one] was tested. Which IC50 did it give?
A: 3.8 µM
